The data set in a line: in vitro. Particulars: African green monkey.

A word on the viability: it is a per cent measure of how many cells are alive, often set against a control. Take `CS(=O)(=O)OCCCCOS(C)(=O)=O` [busulfan]: the viability was around 82%.
